How the values were obtained:
Format in all cases: in vivo
[1] = tested on: morningglory (Ipomoea spp.); test: Test A pre-/postemergence plant response; settings: approx. ten days; for Plant response rating, Morningglory: 500 g ai/ha
Summary of the method: (§1)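 Injury scores (0, no effect; 100, complete control) come from visual comparison with untreated controls roughly ten days post-treatment. Test chemicals in a surfactant-containing non-phytotoxic solvent were applied as a directed soil spray preemergence and to one- to two-leaf seedlings postemergence.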

[2] = tested on: pigweed (Amaranthus retroflexus); test: Test A pre-/postemergence plant response
Summary of the method: as §1

[3] = tested on: giant foxtail (Setaria faberii); test: Test B pre-/postemergence plant response
Summary of the method: (§2)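 Greenhouse herbicide screen. Pre- and postemergence (1- to 4-leaf) spray of compound in solvent/surfactant mixture; loam–sand soil for pre, peat/vermiculite medium for post. Visual control rating 0–100 at 13 to 15 days after treatment.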

[4] = tested on: goosegrass (Eleusine indica); test: Test B pre-/postemergence plant response
Summary of the method: as §2

[5] = tested on: johnsongrass (Sorghum halepense); test: Test B pre-/postemergence plant response
Summary of the method: as §2

[6] = tested on: morningglory (Ipomoea coccinea); test: Test B pre-/postemergence plant response
Summary of the method: as §2

[7] = tested on: wheat (Triticum aestivum); test: Test B pre-/postemergence plant response
Summary of the method: as §2

[8] = tested on: woolly cupgrass (Eriochloa villosa); test: Test B pre-/postemergence plant response
Summary of the method: as §2

[9] = tested on: barnyardgrass (Echinochloa crus-galli); test: Test B flooded paddy test; settings: for Plant response rating, Barnyardgrass: Flood (flooded paddy test), 13 to 15 days
Summary of the method: (§3)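 2-leaf seedlings; pots flooded 3 cm over soil at treatment; cpd dosed into floodwater, depth kept constant. Greenhouse 13–15 d. Visual rating vs untreated controls, 0 = no effect, 100 = complete control.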

[10] = tested on: ducksalad (Heteranthera limosa); test: Test B flooded paddy test; settings: for Plant response rating, Ducksalad: Flood (flooded paddy test), 13 to 15 days
Summary of the method: as §3

rice (Oryza sativa) = test: Test B flooded paddy test; settings: for Plant response rating, Rice: Flood (flooded paddy test), 13 to 15 days
Summary of the method: as §3

[11] = tested on: umbrella sedge (Cyperus difformis); test: Test B flooded paddy test; settings: for Plant response rating, Sedge, Umbrella: Flood (flooded paddy test), 13 to 15 days
Summary of the method: as §3

[12] = 31 g ai/ha, postemergence, scale 0 to 100, 0 is no effect, 100 is complete control
[13] = 62 g ai/ha, postemergence, 0 is no effect, 100 is complete control, 13 to 15 days
[14] = 250 g ai/ha, Preemergence, 0 to 100 scale
[15] = Postemergence, 125 g ai/ha, visual rating after 13 to 15 days, scale 0 (no effect) to 100 (complete control)
[16] = Postemergence, 250 g ai/ha, scale 0 to 100 (0 no effect, 100 complete control)
[17] = Preemergence, 31 g ai/ha, scale 0 to 100 (0 no effect, 100 complete control)
[18] = Preemergence, 62 g ai/ha, scale 0 to 100, 0 no effect, 100 complete control
[19] = Preemergence, 125 g ai/ha, scale 0 to 100, 0 no effect, 100 complete control
[20] = 250 g ai/ha, flooded paddy test, visual rating on 0 to 100 scale (0 no effect, 100 complete control) after 13 to 15 days
[21] = 62 g ai/ha, scale of 0 to 100 where 0 is no effect and 100 is complete control
[22] = 125 g ai/ha, scale 0 to 100, 0 is no effect, 100 is complete control
[23] = Flood, 31 g ai/ha, scale 0 to 100 (0 no effect, 100 complete control)

CCCc1ncc(C(=O)C2=C(O)CCCC2=O)c(=O)n1CCC [Compound 72]
Morningglory plant response rating ([1]; Postemergence, 125 g ai/ha, visual injury, 0 to 100 scale (0 no effect, 100 complete control)): 90 | Plant response rating, Morningglory ([1]; Postemergence, 0 to 100 scale, 0 = no effect, 100 = complete control): 90 | Plant response rating, Morningglory ([1]; Preemergence, visual injury, 0 to 100 scale (0 no effect, 100 complete control)): 70 | Pigweed plant response rating ([2]; Postemergence, 125 g ai/ha, visual injury, 0 to 100 scale (0 no effect, 100 complete control), approx. ten days): 80 | Plant response rating, Pigweed ([2]; Postemergence, 500 g ai/ha, 0 to 100 scale, 0 = no effect, 100 = complete control, approx. ten days): 100 | Plant response rating, Pigweed ([2]; Preemergence, 125 g ai/ha, 0 to 100 scale, 0 = no effect, 100 = complete control): 50 | Plant response rating, Pigweed ([2]; Preemergence, 500 g ai/ha, visual injury, 0 to 100 scale (0 no effect, 100 complete control), approx. ten days): 90 | Plant response rating, Foxtail, Giant [3, 12]: 65 | Foxtail, Giant plant response rating (0 to 100 scale) [3, 13]: 70 | Plant response rating, Foxtail, Giant [3, 14]: 65 | Plant response rating, Foxtail, Giant [3, 15]: 75 | Plant response rating, Foxtail, Giant [3, 16]: 80 | Plant response rating, Foxtail, Giant [3, 17]: 0 | Plant response rating, Foxtail, Giant [3, 18]: 5 | Plant response rating, Foxtail, Giant [3, 19]: 10 | Plant response rating, Goosegrass [4, 12]: 60 | Goosegrass plant response rating (0 to 100 scale) [4, 13]: 65 | Plant response rating, Goosegrass [4, 14]: 100 | Plant response rating, Goosegrass [4, 15]: 65 | Plant response rating, Goosegrass [4, 16]: 70 | Plant response rating, Goosegrass [4, 17]: 60 | Plant response rating, Goosegrass [4, 18]: 98 | Plant response rating, Goosegrass [4, 19]: 100 | Plant response rating, Johnsongrass [5, 12]: 0 | Johnsongrass plant response rating (0 to 100 scale) [5, 13]: 10 | Plant response rating, Johnsongrass [5, 14]: 10 | Plant response rating, Johnsongrass [5, 15]: 40 | Plant response rating, Johnsongrass [5, 16]: 45 | Plant response rating, Johnsongrass [5, 17]: 0 | Plant response rating, Johnsongrass [5, 18]: 0 | Plant response rating, Johnsongrass [5, 19]: 0 | Plant response rating, Morningglory [6, 12]: 20 | Morningglory plant response rating (0 to 100 scale) [6, 13]: 85 | Plant response rating, Morningglory [6, 15]: 90 | Plant response rating, Morningglory [6, 16]: 90 | Plant response rating, Morningglory [6, 17]: 0 | Plant response rating, Morningglory [6, 18]: 55 | Plant response rating, Morningglory [6, 19]: 65 | Plant response rating, Wheat [7, 12]: 0 | Wheat plant response rating (0 to 100 scale) [7, 13]: 5 | Plant response rating, Wheat [7, 15]: 10 | Plant response rating, Wheat [7, 16]: 10 | Plant response rating, Wheat [7, 17]: 0 | Plant response rating, Wheat [7, 18]: 0 | Plant response rating, Wheat [7, 19]: 0 | Plant response rating, Cupgrass, Woolly [8, 12]: 45 | Cupgrass, Woolly plant response rating (0 to 100 scale) [8, 13]: 45 | Plant response rating, Cupgrass, Woolly [8, 14]: 65 | Plant response rating, Cupgrass, Woolly [8, 15]: 50 | Plant response rating, Cupgrass, Woolly [8, 16]: 50 | Plant response rating, Cupgrass, Woolly [8, 17]: 0 | Plant response rating, Cupgrass, Woolly [8, 18]: 0 | Plant response rating, Cupgrass, Woolly [8, 19]: 45 | Plant response rating, Flood, Barnyardgrass [9, 20]: 30 | Plant response rating, Barnyardgrass [9, 21]: 0 | Plant response rating, Barnyardgrass [9, 22]: 0 | Barnyardgrass plant response rating [9, 23]: 0 | Plant response rating, Flood, Ducksalad [10, 20]: 0 | Plant response rating, Ducksalad [10, 21]: 0 | Plant response rating, Ducksalad [10, 22]: 0 | Ducksalad plant response rating [10, 23]: 0 | Plant response rating, Flood, Rice (rice (Oryza sativa); [20]): 20 | Plant response rating, Rice (rice (Oryza sativa); [21]): 0 | Plant response rating, Rice (rice (Oryza sativa); [22]): 20 | Rice plant response rating (rice (Oryza sativa); [23]): 0 | Plant response rating, Flood, Sedge, Umbrella [11, 20]: 30 | Plant response rating, Sedge, Umbrella [11, 21]: 0 | Plant response rating, Sedge, Umbrella [11, 22]: 0 | Sedge, Umbrella plant response rating [11, 23]: 0
